Tested on: MCF7 cells
Assay: γH2AX foci nuclear fluorescence after 2.5 Gy
Assay type: cell-based, Human
Conditions: 1 μM, 0–24 hours after irradiation
Experimental: Cell line γH2AX and 53BP1 foci immunofluorescence and quantitation
Cells grown on coverslips or in 96-well plates were treated with 1 or 5 µM NU5455 or DMSO 1 hour prior to irradiation (0, 2.5 or 10 Gy) using an RS 320 X-ray Research System (Gulmay Medical). At set timepoints (15 or 30 minutes, or 1, 4, 5, 6, or 24 hours post-irradiation), cells were washed and fixed in methanol or 3% paraformaldehyde (PFA). Cells were blocked and permeabilized in 1% (v/v) goat serum/1% (w/v) BSA/0.1% (v/v) Triton X100 or 0.1% (v/v) Triton X100 containing 10% (w/v) dried milk powder and 2% (w/v) bovine serum albumin, followed by incubation with antibodies against γH2AX (JBW301, Millipore #05-636) and/or 53BP1 (Cell Signaling #4937). Cells were then washed and incubated with Alexa Fluor 488 goat anti-mouse and/or Alexa Fluor 568 goat anti -rabbit antibodies (A11001 or A11011 respectively, Invitrogen). In A549 and Calu-6, cells were Hoechst stained (5 µg/ml), and the average numbers of γH2AX and 53BP1 foci per cell were quantified from 400 nuclei per sample using an In Cell analyzer 1000 (GE Healthcare). For MCF7 cells, coverslips were mounted using Vectashield mounting medium with DAPI (Vector Labs) and imaged using a Leica TCS SPE confocal fluorescence microscope. Total fluorescence intensity was determined using ImagePro Plus 5.0 software (Media Cybernetics).
Clonogenic survival assays […]

CN(C(=O)CN1CCOCC1)c1ccc2sc3c(-c4cccc5c(=O)cc(N6CC7CCC(C6)O7)oc45)cccc3c2c1 [NU5455]
number of γH2AX foci: remained elevated even at 24 hours

— article PMC6934184, “Selective DNA-PKcs inhibition extends the therapeutic index of localized radiotherapy and chemotherapy” (The Journal of Clinical Investigation, 2019)
